Experimental data reported in patent publication US20240172749A1, “USE OF NITRAPYRIN FOR IMPROVED PLANT GROWTH AND DEVELOPMENT” (Verdesian Life Sciences U.S., LLC, priority 2021, published 2024).

Legend:
corn seedlings = experiment: Greenhouse study of nitrapyrin as a biostimulant, shoot dry weight (biomass) of corn seedlings; type: in vivo; conditions: applied at lower concentrations/label rates than typically employed as nitrification inhibitor (equal to or lower than 45.4 grams of nitrapyrin per acre)
Protocol: Com seeds were sown in 3-liter pots filled with a peat-vermiculite-perlite potting mix. Plants were grown for a period of 14 days in a greenhouse under standard conditions (28/32° C. night/day temperatures, 16-hour photoperiod, 55% relative humidity, 800 uMol/m2/s light intensity). Seven days after planting, treatments were applied using a 3×3 factorial treatment design (3 nitrapyrin rates×3 fertilizer treatments), with 4 biological replications per treatment combination. Plants were arranged in a completely randomized layout on the greenhouse bench. Nitrapyrin rates were: 0.0 g/plant (acetonitrile only), 0.0005 g/plant and 0.00073 g/plant, with each treatment unit dissolved in 5 mL of acetonitrile. Fertilizer treatments were: No fertilizer (water only), 15-5-15, and 6-24-6. Fertilizers were delivered at a rate of 100 ppm nitrogen, 3 times/week beginning on day 7 through day 14. Nitrapyrin treatments were given only once on day 7. Plants were monitored for signs of phytotoxicity during the experiment. On day 14, plants were harvested and dried in a forced-air oven. Dried plants were weighed individually for biomass. For results see FIG. 1.
A second experiment was performed with the same execution as described above, but with additional treatment groups and additional growing time (21 days). […]

[1] = compositions and/or formulations containing high amounts of water; cited from earlier work

Clc1cccc(C(Cl)(Cl)Cl)n1 [nitrapyrin, Nitrapyrin]
biostimulant properties (improvement in plant growth and/or vigor) (corn seedlings): can exhibit biostimulant properties | degradation of nitrapyrin [1]: rapid degradation
